Molecules are shown by their SMILES.

For the test, the target named is Serotonin 2 (5-HT2) receptor (Rattus norvegicus, UniProt P30994+P08909+P14842). In words: Binding affinity against 5-hydroxytryptamine 2 receptor of rat frontal cortex using [3H]ketanserin radioligand. It is filed as tissue-based.
A word on the Ki: it is the equilibrium dissociation constant of an inhibitor or competing ligand from its target. A high value points to a looser hold on the target. As to `COc1cc(C(=O)O)c(OC)cc1CC(C)N.Cl` (centres undefined), the Ki is reported as greater than 50000 nM.
Take `CCCCCCCCc1cc(OC)c(CC(C)N)cc1OC.Cl` (centres undefined): the Ki was 3 nM.
As for `COc1cc(CC(C)N)c(OC)cc1Cc1ccccc1.Cl` (centres undefined), the figure is 7 nM.
As for `COc1cc(CC(C)N)c(OC)cc1C#N.Cl` (centres undefined), the figure is 2400 nM; as for `CCC(=O)c1cc(OC)c(CC(C)N)cc1OC.Cl` (centres undefined), 735 nM.
As for `CCCCCCc1cc(OC)c(CC(C)N)cc1OC.Cl` (centres undefined), the figure is 2.5 nM; as for `COc1cc(CC(C)N)c(OC)cc1CCCc1ccccc1.Cl` (centres undefined), 10 nM; as for `CCCOC(=O)c1cc(OC)c(CC(C)N)cc1OC` (centres undefined), 2460 nM.
`COc1cc(C(=N)N)c(OC)cc1CC(C)N` (centres undefined) came in with an inhibitory constant (Ki) of 7 nM.
With `CCCNC(=O)c1cc(OC)c(CC(C)N)cc1OC` (centres undefined) the figure was 7550 nM; with `COc1cc(CC(C)N)c(OC)cc1I` (centres undefined), 19 nM.
As for `COc1cc(CC(C)N)c(OC)cc1N` (centres undefined), the figure is 26000 nM.
As for `COc1cc(CC(C)N)c(OC)cc1Cl` (centres undefined), the figure is 218 nM; as for `CCCCOC(=O)c1cc(OC)c(CC(C)N)cc1OC` (centres undefined), 1530 nM; as for `CCCCc1cc(OC)c(CC(C)N)cc1OC` (centres undefined), 58 nM.
The compound `CCOc1cc(OC)c(CC(C)N)cc1OC` (centres undefined) displayed an inhibition constant Ki of 2200 nM.
With `COc1cc(C(C)C)c(OC)cc1CC(C)N` (centres undefined) the figure was 76 nM; with `COc1cc(C(C)(C)C)c(OC)cc1CC(C)N` (centres undefined), 19 nM.
As for `COc1cc(CC(C)N)c(OC)cc1O` (centres undefined), the figure is greater than 50000 nM.

The record behind these values is ChEMBL document CHEMBL1124715 (J Med Chem, 1990).
